What was measured:
[1] = target: T1, Hb in human normal whole blood (Homo sapiens, UniProt P69905); experiment: In-vitro time-dependent oxygen equilibrium study (P50 shift); type: cell-based; settings: 2 mM; for %Hb O2 Affinity (P50 Shift): normal whole blood 30% hematocrit
T1 construct: normal whole blood (AA) was collected from adult donors; from tissue; host or cells: normal (AA) human whole blood from adult donors, 30% hematocrit
Experimental: An oxygen equilibrium curve study was conducted in a time-dependent manner to determine the effect and duration of Pro-7 on Hb affinity for oxygen (P50 shift) following standard procedure. Pro-7, along with the controls TD-7 and DMSO were used for the studies with normal whole blood sample (30% hematocrit). Each compound was incubated with the blood at a final concentration of 2 mM, and aliquot samples were taken at 1, 3, 6, 12 and 24 h and further incubated in IL 237 tonometer (Instrumentation Laboratories, Inc., Lexington, MA, USA) for 10 min at 37 °C, and allowed to equilibrate at oxygen tensions 6, 20, and 40 mmHg. The samples were then aspirated into a Radiometer ABL 800 Automated Blood Gas Analyzer (Copenhagen, Denmark ) to determine the pH, partial pressure of CO2 (pCO2), partial pressure of oxygen (pO2), and Hb oxygen saturation values (SO2). The measured values of pO2 (mmHg) and SO2 at each pO2 value were then subjected to a non-linear regression analysis using the program Scientist (Micromath, Salt Lake City, UT, USA) to estimate P50 as a measure of Hb oxygen affinity as previously reported.
(§1) Human normal whole blood was used to assess the degree of Hb modification and Hb oxygen affinity (P50 shift), while sickle blood was used to investigate RBC sickling inhibition. Pro-7 and the positive control TD-7 were incubated with normal whole blood suspensions. […] For the sickling inhibition study, Pro-7 and the positive control TD-7 were incubated with SS blood suspensions under hypoxic conditions (2.5% O2/97.5% N2), and aliquot blood samples were drawn at three time points (1, 3 and 6 h) and used for assessing RBC morphology. The results summarized in Table 1 and Figure 4A–C show time-dependent effects for all three pharmacodynamic activities. […] Even at the end of the 24-h experiment, Pro-7 activity was still increasing.

[2] = test system: SS cells (homozygous sickle cell blood); experiment: In-vitro time-dependent RBC sickling inhibition under hypoxia; type: cell-based, human; settings: 2 mM; for inhibition at 2000 µM: Homo sapiens, SS cells 20% hematocrit, hypoxia (4% oxygen/96% nitrogen)
Experimental: Red blood cell sickling inhibition studies with Pro-7 and the control TD-7 was conducted using previously reported procedure. Blood suspensions from subjects with homozygous SCD (hematocrit 20%) were incubated under air in the absence or presence of test compounds at 37 °C for 1 h to ensure that binding has attained equilibrium. […] Aliquot samples were fixed with 2% glutaraldehyde solution without exposure to air, and then subjected to microscopic morphological analysis.
Human normal whole blood was used to assess the degree of Hb modification and Hb oxygen affinity (P50 shift), while sickle blood was used to investigate RBC sickling inhibition. […] The results summarized in Table 1 and Figure 4A–C show time-dependent effects for all three pharmacodynamic activities. […] Even at the end of the 24-h experiment, Pro-7 activity was still increasing.

[3] = target: T1, Hb in human normal whole blood; experiment: In-vitro time-dependent Hb modification (Hb adduct formation), cation-exchange HPLC; type: cell-based; settings: 2 mM; for %Hb Modification (Hb Adduct): normal whole blood 30% hematocrit
Experimental: Pro-7 and the control TD-7 were used to conduct time-dependent Hb modification (Hb adduct formation) studies using normal whole blood as previously reported. A 200 mM stock solution of each compound was made with DMSO. In a 96-well 1.2 mL polypropylene deep-well plate (Thermo Scientific, Hampshire, UK), 2.0 mM concentration of each compound was added to 600 μL of whole blood (30% hematocrit), which was then incubated at 37 °C for 24 h with shaking (at 140 rpm). A control sample was supplemented only with an equivalent volume of DMSO. At different time points (0–24 h), 50 μL aliquots of this mixture were withdrawn from each well using a multichannel pipette and added to respective tubes containing 50 μL of sodium cyanoborohydride (NaBH3CN) and sodium borohydride (NaBH4) mixture (1:1 v/v 50 mM stock) to terminate the Schiff-base reaction, fix the Schiff-base Hb adducts and reduce the free reactive aldehyde. After mixing, the tubes were stored immediately at −80 °C until ready for analysis using cation-exchange HPLC (Hitachi D-7000 Series, Hitachi Instruments, Inc. San Jose, CA, USA) for Hb-compound adduct formation. The observed Hb adducts in %Hb modification were plotted as a function of time (h).
as §1

[4] = In-vitro stability in different pH buffers (aldehyde peak absorbance at 349 nm); type: physicochemical; settings: for Stability (absorbance of aldehyde peak at 349 nm): 1 mM, 37 °C
Experimental: The stability of Pro-7 and the control TD-7 in different pH buffers (PBS buffer at pH 7.4, KCl·HCl buffer at pH 2.0, and Tris buffer at pH 8.0) was evaluated over time as previously reported. The ionic strength of all buffers was kept constant at 150 mM. A 200 mM stock solution of each compound was prepared using anhydrous DMSO. 1 mM solutions of each of the test compounds TD-7 and Pro-7 were prepared in duplicate for each of the three different pH buffers. […]
An in-vitro time-dependent (1–96 h) stability study of Pro-7 was conducted to inform the formulation of the prodrug. The study was conducted at three different pHs: 2.0, 7.4 and 8.0, which mimic stomach, blood and intestinal pH conditions, respectively. The presence of TD-7 or the rate of appearance of TD-7 upon dissociation of Pro-7 was monitored at 349 nm spectrophotometrically.

T1 sequence (P69905 2-142 limits assumed): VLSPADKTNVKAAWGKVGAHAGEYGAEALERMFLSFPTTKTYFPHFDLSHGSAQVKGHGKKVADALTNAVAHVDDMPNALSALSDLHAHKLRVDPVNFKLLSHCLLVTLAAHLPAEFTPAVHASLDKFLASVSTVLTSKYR
T1 sequence (P68871 2-147 partner limits assumed): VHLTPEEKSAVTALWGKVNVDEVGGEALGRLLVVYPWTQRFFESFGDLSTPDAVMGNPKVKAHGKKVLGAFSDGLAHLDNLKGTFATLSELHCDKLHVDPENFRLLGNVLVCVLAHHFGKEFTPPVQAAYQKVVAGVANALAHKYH

## COc1ccc(OCc2cccc(CO)n2)c(C=O)c1 [TD-7, 2-((6-(hydroxymethyl)pyridin-2-yl)methoxy)-5-methoxybenzaldehyde]
[1]; normal whole blood
  time of peak effect, Hb oxygen affinity: peaked quickly at the first hour
[1]; 1 h
  %Hb O2 Affinity (P50 Shift): 69.26%
[1]; 3 h
  %Hb O2 Affinity (P50 Shift): 67.42%
[1]; 6 h
  %Hb O2 Affinity (P50 Shift): 49.06%
[1]; 12 h
  %Hb O2 Affinity (P50 Shift): 49.58%
[1]; 24 h
  %Hb O2 Affinity (P50 Shift): 48.56%
[2]; SS blood, hypoxia
  time of peak effect, RBC sickling inhibition: peaked quickly at the first hour
[2]; 1 h
  inhibition at 2000 µM: 76.3%
[2]; 3 h
  inhibition at 2000 µM: 59.6%
[2]; 6 h
  inhibition at 2000 µM: 54%
[3]; 0 h
  %Hb Modification (Hb Adduct): 0.00 ± 0.00%
[3]; normal whole blood
  time of peak effect, Hb modification: 12 h
[3]; 1 h
  %Hb Modification (Hb Adduct): 25.20 ± 1.20%
[3]; 2 h
  %Hb Modification (Hb Adduct): 23.40 ± 3.50%
[3]; 4 h
  %Hb Modification (Hb Adduct): 41.70 ± 4.30%
[3]; 8 h
  %Hb Modification (Hb Adduct): 47.30 ± 4.70%
[3]; 12 h
  %Hb Modification (Hb Adduct): 48.30 ± 0.50%
[3]; 24 h
  %Hb Modification (Hb Adduct): 43.30 ± 1.90%
[4]; pH 2.0, 0 hr
  Stability (absorbance of aldehyde peak at 349 nm): 3.23 ± 0.08
[4]; pH 2.0, 7.4 and 8.0, 96 h experiment
  stability in buffer (in words): showed stability at all three pHs
[4]; pH 2.0, 1 hr
  Stability (absorbance of aldehyde peak at 349 nm): 3.02 ± 0.00
[4]; pH 2.0, 2 hr
  Stability (absorbance of aldehyde peak at 349 nm): 3.03 ± 0.04
[4]; pH 2.0, 3 hr
  Stability (absorbance of aldehyde peak at 349 nm): 2.97 ± 0.04
[4]; pH 2.0, 6 hr
  Stability (absorbance of aldehyde peak at 349 nm): 2.98 ± 0.01
[4]; pH 2.0, 24 hr
  Stability (absorbance of aldehyde peak at 349 nm): 2.93 ± 0.01
[4]; pH 7.4, 0 hr
  Stability (absorbance of aldehyde peak at 349 nm): 3.05 ± 0.10
[4]; pH 7.4, 1 hr
  Stability (absorbance of aldehyde peak at 349 nm): 2.97 ± 0.01
[4]; pH 7.4, 2 hr
  Stability (absorbance of aldehyde peak at 349 nm): 2.95 ± 0.03
[4]; pH 7.4, 3 hr
  Stability (absorbance of aldehyde peak at 349 nm): 3.09 ± 0.06
[4]; pH 7.4, 6 hr
  Stability (absorbance of aldehyde peak at 349 nm): 2.92 ± 0.02
[4]; pH 7.4, 24 hr
  Stability (absorbance of aldehyde peak at 349 nm): 2.98 ± 0.07
[4]; pH 7.4, 28 hr
  Stability (absorbance of aldehyde peak at 349 nm): 2.90 ± 0.04
[4]; pH 7.4, 48 hr
  Stability (absorbance of aldehyde peak at 349 nm): 3.00 ± 0.05
[4]; pH 7.4, 56 hr
  Stability (absorbance of aldehyde peak at 349 nm): 2.98 ± 0.08
[4]; pH 7.4, 72 hr
  Stability (absorbance of aldehyde peak at 349 nm): 2.92 ± 0.05
[4]; pH 7.4, 96 hr
  Stability (absorbance of aldehyde peak at 349 nm): 2.95 ± 0.03
[4]; pH 8.0, 0 hr
  Stability (absorbance of aldehyde peak at 349 nm): 1.82 ± 0.05
[4]; pH 8.0, 1 hr
  Stability (absorbance of aldehyde peak at 349 nm): 1.79 ± 0.00
[4]; pH 8.0, 2 hr
  Stability (absorbance of aldehyde peak at 349 nm): 1.73 ± 0.01
[4]; pH 8.0, 3 hr
  Stability (absorbance of aldehyde peak at 349 nm): 1.73 ± 0.01
[4]; pH 8.0, 6 hr
  Stability (absorbance of aldehyde peak at 349 nm): 1.71 ± 0.01
[4]; pH 8.0, 24 hr
  Stability (absorbance of aldehyde peak at 349 nm): 1.73 ± 0.02
[4]; pH 8.0, 28 hr
  Stability (absorbance of aldehyde peak at 349 nm): 1.70 ± 0.02
[4]; pH 8.0, 48 hr
  Stability (absorbance of aldehyde peak at 349 nm): 1.68 ± 0.03
[4]; pH 8.0, 72 hr
  Stability (absorbance of aldehyde peak at 349 nm): 1.73 ± 0.03
[4]; pH 8.0, 96 hr
  Stability (absorbance of aldehyde peak at 349 nm): 1.68 ± 0.04

Source: paper PMC10675597, “Design, Synthesis, and Antisickling Investigation of a Thiazolidine Prodrug of TD-7 That Prolongs the Duration of Action of Antisickling Aromatic Aldehyde” (Pharmaceutics, 2023)
